According to PubChem BioAssay AID330 (DTP/NCI, 2004):
Values joined by “and” are separate entries in the source; they are usually repeats but may differ in a detail not shown here. Equal entries are not always repeated. Toxic doses and inconclusive results are not listed.

Test system: P388 leukemia ip, CD2F1 mice, survival T/C
Experiment: NCI In Vivo Anticancer Drug Screen. Data for tumor model P388 Leukemia (intraperitoneal) in CD2F1 (CDF1) mice
Settings: endpoint: median survival time, higher = longer survival
Summary of the method: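 Mice carrying the transplanted tumor received test compound or vehicle. Survival was recorded in each group, and the value is the treated-group measurement divided by that of the vehicle-treated control group.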

[1] = dose: 25.0 mg/kg/injection, schedule: Q04DX003 (ip), vehicle: Klucel (hydroxypropylcellulose) (HPC)
[2] = dose: 50.0 mg/kg/injection, schedule: Q01DX005 (ip), vehicle: saline with Tween-80
[3] = dose: 100.0 mg/kg/injection, schedule: Q01DX005 (ip), vehicle: saline with Tween-80
[4] = dose: 12.5 mg/kg/injection, schedule: Q01DX009 (ip), vehicle: saline with Tween-80
[5] = dose: 25.0 mg/kg/injection, schedule: Q01DX009 (ip), vehicle: saline with Tween-80
[6] = dose: 50.0 mg/kg/injection, schedule: Q01DX009 (ip), vehicle: saline with Tween-80
[7] = dose: 100.0 mg/kg/injection, schedule: Q01DX009 (ip), vehicle: saline with Tween-80
[8] = dose: 50.0 mg/kg/injection, schedule: Q01DX005 (ip), vehicle: saline
[9] = dose: 100.0 mg/kg/injection, schedule: Q01DX005 (ip), vehicle: saline
[10] = dose: 60.0 mg/kg/injection, schedule: Q01DX005 (ip), vehicle: Klucel (hydroxypropylcellulose) (HPC)
[11] = dose: 120.0 mg/kg/injection, schedule: Q01DX005 (ip), vehicle: Klucel (hydroxypropylcellulose) (HPC)
[12] = dose: 100.0 mg/kg/injection, schedule: Q01DX001 (ip), vehicle: saline with Tween-80
[13] = dose: 200.0 mg/kg/injection, schedule: Q01DX001 (ip), vehicle: saline with Tween-80
[14] = dose: 200.0 mg/kg/injection, schedule: Q01DX005 (ip), vehicle: saline with Tween-80
[15] = dose: 400.0 mg/kg/injection, schedule: Q01DX001 (ip), vehicle: saline with Tween-80

With `CCN([NH-])C(=S)[S-].CCN([NH-])C(=S)[S-].[Ni]` the T/C (dose: 6.25 mg/kg/injection, schedule: Q04DX003 (ip), vehicle: Klucel (hydroxypropylcellulose) (HPC)) was 99 % of control, the T/C (dose: 12.5 mg/kg/injection, schedule: Q04DX003 (ip), vehicle: Klucel (hydroxypropylcellulose) (HPC)) was 107 % of control and the T/C [1] was 103 % of control.

With `Oc1cc2c(cc1C(c1ccc(Cl)cc1)N1CCOCC1)OCO2` (centres undefined) the T/C (dose: 60.0 mg/kg/injection, schedule: Q01DX005 (ip), vehicle: saline with Tween-80) was 102 % of control, the T/C (dose: 120.0 mg/kg/injection, schedule: Q01DX005 (ip), vehicle: saline with Tween-80) was 111 % of control and the T/C (dose: 240.0 mg/kg/injection, schedule: Q01DX005 (ip), vehicle: saline with Tween-80) was 124 % of control.

With `C(=N\SC(c1ccccc1)(c1ccccc1)c1ccccc1)/c1ccccc1` the T/C [2] was 100 % of control and the T/C [3] was 103 % of control.

With `CN(C)C1C(O)C2Oc3c(cc(O)c4c3C(=O)c3cc5c(c(O)c3C4=O)C(OCC3COC(C)(C)O3)CC(C)(O)C5)C(C)(O2)C1O` (centres undefined) the T/C (dose: 2.0 mg/kg/injection, schedule: Q01DX009 (ip), vehicle: other) was 105 % of control, the T/C (dose: 4.0 mg/kg/injection, schedule: Q01DX009 (ip), vehicle: other) was 117 % of control and the T/C (dose: 8.0 mg/kg/injection, schedule: Q01DX009 (ip), vehicle: other) was 123 % of control. For the same compound, the T/C (dose: 16.0 mg/kg/injection, schedule: Q01DX009 (ip), vehicle: other) was 123 % of control.

In the case of `CCCCCCCCCCSCC(N)C(=O)O` (centres undefined), the T/C (dose: 50.0 mg/kg/injection, schedule: Q01DX009 (ip), vehicle: other) is reported as 89 % of control, the T/C (dose: 100.0 mg/kg/injection, schedule: Q01DX009 (ip), vehicle: other) is reported as 88 % of control and the T/C (dose: 200.0 mg/kg/injection, schedule: Q01DX009 (ip), vehicle: other) is reported as 94 % of control. The T/C (dose: 400.0 mg/kg/injection, schedule: Q01DX009 (ip), vehicle: other) was 99 % of control.

In the case of `CCCCCCCCCCCCCCCCCC(=O)Nc1ccn(C2OC(CO)C(O)C2O)c(=O)n1` (centres undefined), the T/C (dose: 6.25 mg/kg/injection, schedule: Q01DX009 (ip), vehicle: saline with Tween-80) is reported as 196 % of control, the T/C [4] is reported as 177 % of control and 227 % of control (2×) and the T/C [5] is reported as 113 % of control and 267 % of control and 270 % of control. The T/C [6] was 195 % of control and 267 % of control and 270 % of control and the T/C [7] was 86 % of control and 92 % of control.

With `CCN(CC)CC(CN(CC)CC)N(CCO)CC(C)C` the T/C [8] was 93 % of control and the T/C [9] was 100 % of control.

In the case of `CC(=O)N(O)c1ccc(S(N)(=O)=O)cc1`, the T/C [6] is reported as 113 % of control, the T/C [7] is reported as 100 % of control and the T/C (dose: 200.0 mg/kg/injection, schedule: Q01DX009 (ip), vehicle: saline with Tween-80) is reported as 98 % of control.

In the case of `CC1(C)O[C@@H]2C[C@H]3[C@@H]4CCC5=CC(=O)C=C[C@]5(C)[C@@]4(F)[C@@H](O)C[C@]3(C)[C@]2(C(=O)CO)O1`, the T/C [4] is reported as 109 % of control and the T/C [5] is reported as 109 % of control.

For `O=C(CCCC(=O)Nc1ccc2[nH]c3ccccc3c(=O)c2c1)Nc1ccc2[nH]c3ccccc3c(=O)c2c1`, the T/C [10] was 92 % of control and the T/C [11] was 94 % of control.

`CC(=O)N(C)OS(C)(=O)=O` was tested, and the T/C (dose: 50.0 mg/kg/injection, schedule: Q01DX001 (ip), vehicle: saline with Tween-80) was 108 % of control, the T/C [2] was 101 % of control and the T/C [12] was 100 % of control. For the same compound, the T/C [3] was 103 % of control, the T/C [13] was 104 % of control and the T/C [14] was 106 % of control. For the same compound, the T/C [15] was 104 % of control.

With `CC(=O)Nc1nc2ncc(CN(C(C)=O)c3ccc(C4=NC(CCC(=O)O)C(=O)O4)cc3)nc2c(=O)[nH]1` (centres undefined) the T/C (dose: 50.0 mg/kg/injection, schedule: Q04DX003 (ip), vehicle: alkali diluted with saline) was 97 % of control, the T/C (dose: 100.0 mg/kg/injection, schedule: Q04DX003 (ip), vehicle: alkali diluted with saline) was 95 % of control and the T/C (dose: 200.0 mg/kg/injection, schedule: Q04DX003 (ip), vehicle: alkali diluted with saline) was 102 % of control.

With `CC1(C)C2CCC([CH2][Hg][Cl])C1C2` (centres undefined) the T/C (dose: 2.44 mg/kg/injection, schedule: Q01DX009 (ip), vehicle: saline with Tween-80) was 100 % of control, the T/C (dose: 3.66 mg/kg/injection, schedule: Q01DX009 (ip), vehicle: saline with Tween-80) was 100 % of control and the T/C (dose: 5.55 mg/kg/injection, schedule: Q01DX009 (ip), vehicle: other) was 113 % of control. For the same compound, the T/C (dose: 5.55 mg/kg/injection, schedule: Q01DX009 (ip), vehicle: saline with Tween-80) was 100 % of control and 91 % of control, the T/C (dose: 6.25 mg/kg/injection, schedule: Q04DX003 (ip), vehicle: other) was 105 % of control and the T/C (dose: 8.33 mg/kg/injection, schedule: Q01DX009 (ip), vehicle: saline with Tween-80) was 108 % of control and 95 % of control. For the same compound, the T/C (dose: 12.5 mg/kg/injection, schedule: Q01DX009 (ip), vehicle: other) was 86 % of control, the T/C (dose: 12.5 mg/kg/injection, schedule: Q04DX003 (ip), vehicle: other) was 100 % of control and the T/C (dose: 25.0 mg/kg/injection, schedule: Q04DX003 (ip), vehicle: other) was 100 % of control.

`CSC(=Nc1ccc(C)c(Cl)c1)NC#N` was tested, and the T/C (dose: 50.0 mg/kg/injection, schedule: Q01DX009 (ip), vehicle: Klucel (hydroxypropylcellulose) (HPC)) was 98 % of control, the T/C (dose: 100.0 mg/kg/injection, schedule: Q01DX009 (ip), vehicle: Klucel (hydroxypropylcellulose) (HPC)) was 91 % of control and the T/C (dose: 200.0 mg/kg/injection, schedule: Q01DX009 (ip), vehicle: Klucel (hydroxypropylcellulose) (HPC)) was 92 % of control.

For `O=C(c1ccccc1)N1C2C=C(c3ccccc3)CC1CC2` (centres undefined), the T/C (dose: 100.0 mg/kg/injection, schedule: Q04DX003 (ip), vehicle: Klucel (hydroxypropylcellulose) (HPC)) was 111 % of control, the T/C (dose: 200.0 mg/kg/injection, schedule: Q04DX003 (ip), vehicle: Klucel (hydroxypropylcellulose) (HPC)) was 97 % of control and the T/C (dose: 400.0 mg/kg/injection, schedule: Q04DX003 (ip), vehicle: Klucel (hydroxypropylcellulose) (HPC)) was 94 % of control.

`O=c1[nH]c2cc([N+](=O)[O-])ccc2nc1/C=C(\O)c1ccco1` was tested, and the T/C (dose: 60.0 mg/kg/injection, schedule: Q01DX005 (ip), vehicle: Klucel + Tween-80) was 100 % of control, the T/C (dose: 120.0 mg/kg/injection, schedule: Q01DX005 (ip), vehicle: Klucel + Tween-80) was 94 % of control and the T/C (dose: 240.0 mg/kg/injection, schedule: Q01DX005 (ip), vehicle: Klucel + Tween-80) was 94 % of control.

With `O=C1C(O)=C(Cl)C(=O)C(O)=C1Cl` the T/C (dose: 12.5 mg/kg/injection, schedule: Q01DX005 (ip), vehicle: saline) was 111 % of control, the T/C (dose: 25.0 mg/kg/injection, schedule: Q01DX005 (ip), vehicle: saline) was 101 % of control and the T/C [8] was 110 % of control. For the same compound, the T/C [9] was 90 % of control.

With `CC(=O)N=c1sccn1CC(=O)c1ccccc1` the T/C [1] was 119 % of control, the T/C (dose: 50.0 mg/kg/injection, schedule: Q04DX003 (ip), vehicle: Klucel (hydroxypropylcellulose) (HPC)) was 96 % of control and the T/C (dose: 100.0 mg/kg/injection, schedule: Q01DX001 (ip), vehicle: Klucel (hydroxypropylcellulose) (HPC)) was 100 % of control. The T/C (dose: 200.0 mg/kg/injection, schedule: Q01DX001 (ip), vehicle: Klucel (hydroxypropylcellulose) (HPC)) was 100 % of control and the T/C (dose: 400.0 mg/kg/injection, schedule: Q01DX001 (ip), vehicle: Klucel (hydroxypropylcellulose) (HPC)) was 101 % of control.

`CCN1/C(=C\C2=C([O-])C(=C/c3sc4ccccc4[n+]3CC)/C2=O)Sc2ccccc21` was tested, and the T/C [10] was 103 % of control, the T/C [11] was 119 % of control and the T/C (dose: 240.0 mg/kg/injection, schedule: Q01DX005 (ip), vehicle: Klucel (hydroxypropylcellulose) (HPC)) was 86 % of control.

In the case of `Cn1c(=O)c2[nH]c(-c3c[nH]c4ccccc34)nc2n(C)c1=O`, the T/C (dose: 100.0 mg/kg/injection, schedule: Q04DX003 (ip), vehicle: saline with Tween-80) is reported as 89 % of control, the T/C (dose: 200.0 mg/kg/injection, schedule: Q04DX003 (ip), vehicle: saline with Tween-80) is reported as 89 % of control and the T/C (dose: 400.0 mg/kg/injection, schedule: Q04DX003 (ip), vehicle: saline with Tween-80) is reported as 86 % of control.

For `CC1(C)CCC2(C)N(c3ccccc3)C(=O)ON12` (centres undefined), the T/C [2] was 102 % of control, the T/C [3] was 100 % of control and the T/C [14] was 99 % of control.

With `c1ccc2c3c(ccc2c1)OCCOCCOCCOc1ccc2ccccc2c1-3` the T/C [12] was 98 % of control, the T/C [13] was 92 % of control and the T/C [15] was 87 % of control.
